Target: human integrin αvβ6 (Homo sapiens (Human), UniProt P06756+P18564)
Test: Proximity-based integrin receptor binding assay (ALPHASCREEN) for inhibitor potency
Details: inhibition of binding of TGF-b1 LAP to human integrin αvβ6; values given in ranges
How it was run: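 AlphaScreen: integrin, compound, TGF-b1 LAP, biotinylated anti-LAP antibody and acceptor beads incubated 2 hours, then streptavidin donor beads 30 minutes, at room temperature in 50 mM Tris-HCl pH 7.5, 0.1% BSA, 1 mM CaCl2 and MgCl2. Excitation 680 nm, emission 520-620 nm; IC50 by four-parameter logistic fit.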

Chain of human integrin αvβ6 (P06756 31-992): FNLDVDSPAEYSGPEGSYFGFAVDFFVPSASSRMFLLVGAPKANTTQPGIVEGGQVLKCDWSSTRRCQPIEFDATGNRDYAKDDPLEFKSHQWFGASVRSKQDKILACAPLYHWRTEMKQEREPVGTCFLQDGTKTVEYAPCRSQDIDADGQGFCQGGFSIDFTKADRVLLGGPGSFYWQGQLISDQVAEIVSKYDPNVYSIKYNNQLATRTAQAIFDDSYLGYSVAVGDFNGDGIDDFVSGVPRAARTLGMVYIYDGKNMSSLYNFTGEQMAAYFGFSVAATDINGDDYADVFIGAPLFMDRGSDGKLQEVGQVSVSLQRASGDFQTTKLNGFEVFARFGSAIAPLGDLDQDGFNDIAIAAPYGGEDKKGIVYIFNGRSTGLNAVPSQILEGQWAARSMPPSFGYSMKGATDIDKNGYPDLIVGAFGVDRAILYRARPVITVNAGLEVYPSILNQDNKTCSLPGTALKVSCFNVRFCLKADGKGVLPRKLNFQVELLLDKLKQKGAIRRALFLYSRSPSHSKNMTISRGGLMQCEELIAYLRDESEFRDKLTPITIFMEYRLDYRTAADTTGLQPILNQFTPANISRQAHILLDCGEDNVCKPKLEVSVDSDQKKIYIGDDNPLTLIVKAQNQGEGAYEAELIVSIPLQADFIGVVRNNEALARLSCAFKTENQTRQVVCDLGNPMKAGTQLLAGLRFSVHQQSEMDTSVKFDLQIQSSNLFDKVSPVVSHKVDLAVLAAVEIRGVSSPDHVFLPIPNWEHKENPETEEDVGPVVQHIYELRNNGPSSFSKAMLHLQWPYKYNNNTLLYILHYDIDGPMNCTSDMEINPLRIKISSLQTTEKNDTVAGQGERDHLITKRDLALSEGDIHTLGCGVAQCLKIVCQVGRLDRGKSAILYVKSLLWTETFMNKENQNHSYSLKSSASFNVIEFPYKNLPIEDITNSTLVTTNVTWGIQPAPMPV
Chain of human integrin αvβ6 (P18564 22-707): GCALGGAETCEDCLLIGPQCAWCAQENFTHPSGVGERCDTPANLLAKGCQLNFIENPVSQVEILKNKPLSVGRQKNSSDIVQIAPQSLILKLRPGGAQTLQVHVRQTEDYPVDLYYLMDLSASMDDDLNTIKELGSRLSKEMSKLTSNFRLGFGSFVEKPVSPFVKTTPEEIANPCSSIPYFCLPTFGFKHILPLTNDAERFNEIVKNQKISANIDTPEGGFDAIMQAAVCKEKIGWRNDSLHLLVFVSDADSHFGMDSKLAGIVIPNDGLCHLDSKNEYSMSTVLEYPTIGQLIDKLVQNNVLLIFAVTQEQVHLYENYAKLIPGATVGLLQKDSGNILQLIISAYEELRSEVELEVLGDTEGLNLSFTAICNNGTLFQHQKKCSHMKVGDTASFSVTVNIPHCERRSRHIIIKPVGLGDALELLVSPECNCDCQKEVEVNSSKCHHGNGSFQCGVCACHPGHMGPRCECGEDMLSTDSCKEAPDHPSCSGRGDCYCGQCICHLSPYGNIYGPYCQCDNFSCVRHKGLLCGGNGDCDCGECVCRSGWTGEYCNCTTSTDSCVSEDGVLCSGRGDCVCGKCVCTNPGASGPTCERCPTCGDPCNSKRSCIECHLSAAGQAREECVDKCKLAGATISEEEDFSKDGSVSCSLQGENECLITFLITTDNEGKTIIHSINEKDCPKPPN

Molecule | IC50 [nM]
CC(C)(C)c1nccc(N[C@@H](CCO[C@H]2C[C@H](CCc3ccc4c(n3)NCCC4)C2)C(=O)O)n1 [Example 225, N-(2-(tert-butyl)pyrimidin-4-yl)-O-(trans-3-(2-(5,6,7,8-tetrahydro-1,8-naphthyridin-2-yl)ethyl)cyclobutyl)homoserine] | 250 to 1000
CC(C)(C)c1ccnc(N[C@@H](CCO[C@H]2C[C@H](CCc3ccc4c(n3)NCCC4)C2)C(=O)O)n1 [Example 226, N-(4-(tert-butyl)pyrimidin-2-yl)-O-(trans-3-(2-(5,6,7,8-tetrahydro-1,8-naphthyridin-2-yl)ethyl)cyclobutyl)homoserine] | 250 to 1000
O=C(O)C(CCO[C@H]1C[C@H](CCc2ccc3cccnc3n2)C1)Nc1ncnc2ccccc12 (stereo partly drawn) [Example 228, O-(trans-3-(2-(1,8-naphthyridin-2-yl)ethyl)cyclobutyl)-N-(quinazolin-4-yl)homoserine] | < 50
CC(C)(C)c1cc(N[C@@H](CCO[C@H]2C[C@H](CCc3ccc4c(n3)NCCC4)C2)C(=O)O)ncn1 [Example 229, N-(6-(tert-butyl)pyrimidin-4-yl)-O-(trans-3-(2-(5,6,7,8-tetrahydro-1,8-naphthyridin-2-yl)ethyl)cyclobutyl)homoserine] | 50 to 250
N-isonicotinoyl-O-(trans-3-(2-(5,6,7,8-tetrahydro-1,8-naphthyridin-2-yl)ethyl)cyclobutyl)-D-homoserine [Compound 58] | > 1000

The next lines start with the values.

IC50 [nM] | Molecule
250 to 1000 | O=C(O)C(CCO[C@H]1C[C@H](CCc2ccc3cccnc3n2)C1)Nc1ncnc2ccccc12 (stereo partly drawn) [Example 227, O-(trans-3-(2-(1,8-naphthyridin-2-yl)ethyl)cyclobutyl)-N-(quinazolin-4-yl)homoserine]
> 1000 | N—((R)-2-hydroxy-2-phenylacetyl)-O-(4-(5,6,7,8-tetrahydro-1,8-naphthyridin-2-yl)butyl)-D-homoserine [Compound 77]

— patent US11180494B2, “Substituted amino acids as integrin inhibitors” (Pliant Therapeutics, Inc., priority 2018, dated 2021)
